Measured values published in ChEMBL document CHEMBL4257221, “Peptides comprising non-natural amino acids and methods of making and using the same” (2016).
Numbered stars: 1 amine (or outer) side, 2 acyl side, 3 side chain; on linkers, the order of the positions; unused ones are H or OH. Square brackets hold non-standard residues; d marks the D form. Peptide text beside a SMILES is read from it. ξ: configuration not given here. X1 = O=C([C@H]1CCC[C@@H]1N[*:1])[*:2]; X2 = O=C([C@H]1CNC[C@@H]1N[*:1])[*:2]; ξβ3hY = NC(CC(=O)O)Cc1ccc(O)cc1; β3hN = NC(=O)C[C@H](N)CC(=O)O; β3hV = CC(C)[C@H](N)CC(=O)O; ξβ3hL = CC(C)CC(N)CC(=O)O; ξβ3hK = NCCCCC(N)CC(=O)O; Aib = CC(C)(N)C(=O)O; βAla = NCCC(=O)O

Legend:
[1] = target: T1, Vasoactive intestinal polypeptide receptor 2 (Homo sapiens, UniProt P41587); experiment: Agonist activity at human VIPR2 expressed in CHOK1 cells assessed as intracellular cAMP accumulation after 60 mins by PathHunter assay; format: functional, cell-based
T1 sequence (P41587 whole entry): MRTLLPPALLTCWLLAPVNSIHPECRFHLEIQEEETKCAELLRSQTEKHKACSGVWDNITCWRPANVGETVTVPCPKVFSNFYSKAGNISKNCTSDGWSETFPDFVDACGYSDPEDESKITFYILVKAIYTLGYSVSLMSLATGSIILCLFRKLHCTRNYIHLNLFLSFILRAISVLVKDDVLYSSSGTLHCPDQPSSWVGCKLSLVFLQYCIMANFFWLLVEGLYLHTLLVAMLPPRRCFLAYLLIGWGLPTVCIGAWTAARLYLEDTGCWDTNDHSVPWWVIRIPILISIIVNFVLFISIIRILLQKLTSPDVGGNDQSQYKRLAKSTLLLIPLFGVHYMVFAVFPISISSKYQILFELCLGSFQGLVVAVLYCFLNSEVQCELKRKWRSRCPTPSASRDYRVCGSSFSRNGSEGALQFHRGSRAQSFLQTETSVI

[2] = target: T2, Vasoactive intestinal polypeptide receptor 1 (Homo sapiens, UniProt P32241); experiment: Agonist activity at human VIPR1 expressed in CHOK1 cells assessed as intracellular cAMP accumulation after 60 mins by PathHunter assay; format: functional, cell-based
T2 sequence (P32241 whole entry): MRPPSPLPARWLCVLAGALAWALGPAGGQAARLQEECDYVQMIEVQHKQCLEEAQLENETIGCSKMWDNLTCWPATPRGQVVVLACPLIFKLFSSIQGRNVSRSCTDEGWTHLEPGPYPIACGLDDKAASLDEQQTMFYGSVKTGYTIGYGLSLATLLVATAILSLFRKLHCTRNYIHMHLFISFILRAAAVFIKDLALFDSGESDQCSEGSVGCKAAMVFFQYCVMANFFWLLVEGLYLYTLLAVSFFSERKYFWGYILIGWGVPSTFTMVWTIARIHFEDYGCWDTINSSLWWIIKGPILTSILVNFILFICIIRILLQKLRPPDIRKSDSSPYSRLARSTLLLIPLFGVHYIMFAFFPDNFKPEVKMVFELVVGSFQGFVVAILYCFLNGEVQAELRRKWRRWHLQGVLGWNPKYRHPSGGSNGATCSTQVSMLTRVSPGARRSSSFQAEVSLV

How did the EC50 [1] turn out when `CC(=O)N[C@@H](Cc1cnc[nH]1)C(=O)N[C@@H](CO)C(=O)N[C@@H](CC(=O)O)C(=O)N[C@@H](C)C(=O)N[C@H](C(=O)N[C@@H](Cc1ccccc1)C(=O)N[C@H](C(=O)N[C@@H](CCC(=O)O)C(=O)N[C@@H](CC(N)=O)C(=O)N[C@@H](Cc1ccc(O)cc1)C(=O)N[C@H](C(=O)N[C@@H](CCCCN)C(=O)N[C@@H](CC(C)C)C(=O)N[C@@H](CCCNC(=N)N)C(=O)N[C@@H](CCCCN)C(=O)N[C@@H](CCC(N)=O)C(=O)N[C@H]1CCC[C@@H]1C(=O)N[C@@H](C)C(=O)N[C@@H](C)C(=O)N[C@H]1CNC[C@@H]1C(=O)N[C@@H](CCCCN)C(=O)N[C@@H](Cc1ccc(O)cc1)C(=O)N[C@@H](CC(C)C)C(=O)N[C@H]1CCC[C@@H]1C(=O)N[C@@H](CC(=O)O)C(=O)N[C@@H](CC(C)C)C(=O)NC(CCCCN)CC(=O)N[C@@H](CCCCN)C(=O)NCC(=O)NCC(=O)N[C@H](C(=O)O)[C@@H](C)O)[C@@H](C)O)[C@@H](C)O)C(C)C` (stereo partly drawn) (Ac-HSDAVFTENYTKLRKQ[X1]AA[X2]KYL[X1]DL[ξβ3hK]KGGT-OH) was run?
Its EC50 is 0.18 nM.

What about the EC50 [2] of the same compound?
Its EC50 is 218 nM.

How did the EC50 [1] turn out when `CC(=O)N[C@@H](Cc1cnc[nH]1)C(=O)NC(C)(C)C(=O)N[C@@H](CC(=O)O)C(=O)N[C@@H](C)C(=O)N[C@H](C(=O)N[C@@H](Cc1ccccc1)C(=O)N[C@H](C(=O)N[C@@H](CCC(=O)O)C(=O)N[C@@H](CC(N)=O)C(=O)N[C@@H](Cc1ccc(O)cc1)C(=O)N[C@H](C(=O)N[C@@H](CCCCN)C(=O)N[C@@H](CC(C)C)C(=O)N[C@@H](CCCNC(=N)N)C(=O)N[C@@H](CCCCN)C(=O)N[C@@H](CCC(N)=O)C(=O)N[C@@H](CC(C)C)C(=O)N[C@@H](C)C(=O)N[C@@H](C)C(=O)N[C@H]1CNC[C@@H]1C(=O)N[C@@H](CCCCN)C(=O)N[C@@H](Cc1ccc(O)cc1)C(=O)N[C@H]1CCC[C@@H]1C(=O)N[C@@H](CC(N)=O)C(=O)N[C@@H](CC(=O)O)C(=O)N[C@@H](CC(C)C)C(=O)NC(CCCCN)CC(=O)N[C@@H](CCCCN)C(=O)NCC(=O)NCCC(=O)N[C@H](C(=O)O)[C@@H](C)O)[C@@H](C)O)[C@@H](C)O)C(C)C` (stereo partly drawn) (Ac-H[Aib]DAVFTENYTKLRKQLAA[X2]KY[X1]NDL[ξβ3hK]KG[βAla]T-OH) was run?
Its EC50 is 0.529 nM.

And the EC50 [2]?
The EC50 was 516 nM.

What does the source list for `CC(=O)N[C@@H](Cc1cnc[nH]1)C(=O)NC(C)(C)C(=O)N[C@@H](CC(=O)O)C(=O)N[C@@H](C)C(=O)N[C@H](CC(=O)N[C@@H](Cc1ccccc1)C(=O)N[C@H](C(=O)N[C@@H](CCC(=O)O)C(=O)N[C@@H](CC(N)=O)C(=O)N[C@@H](Cc1ccc(O)cc1)C(=O)N[C@H](C(=O)N[C@@H](CCCCN)C(=O)N[C@@H](CC(C)C)C(=O)N[C@@H](CCCNC(=N)N)C(=O)N[C@@H](CCCCN)C(=O)N[C@@H](CCC(N)=O)C(=O)N[C@@H](CC(C)C)C(=O)N[C@@H](C)C(=O)N[C@@H](C)C(=O)N[C@H]1CNC[C@@H]1C(=O)N[C@@H](CCCCN)C(=O)N[C@@H](Cc1ccc(O)cc1)C(=O)N[C@H]1CCC[C@@H]1C(=O)N[C@@H](CC(N)=O)C(=O)N[C@@H](CC(=O)O)C(=O)N[C@@H](CC(C)C)C(=O)NC(CCCCN)CC(=O)N[C@@H](CCCCN)C(=O)NCC(=O)NCCC(=O)N[C@H](C(=O)O)[C@@H](C)O)[C@@H](C)O)[C@@H](C)O)C(C)C` (stereo partly drawn) (Ac-H[Aib]DA[β3hV]FTENYTKLRKQLAA[X2]KY[X1]NDL[ξβ3hK]KG[βAla]T-OH)?
EC50 [1]: 0.816 nM; EC50 [2]: > 1000 nM

What does the source list for `CC(=O)N[C@@H](Cc1cnc[nH]1)C(=O)NC(C)(C)C(=O)N[C@@H](CC(=O)O)C(=O)N[C@@H](C)C(=O)N[C@H](CC(=O)N[C@@H](Cc1ccccc1)C(=O)N[C@H](C(=O)N[C@@H](CCC(=O)O)C(=O)N[C@@H](CC(N)=O)CC(=O)N[C@@H](Cc1ccc(O)cc1)C(=O)N[C@H](C(=O)N[C@@H](CCCCN)C(=O)N[C@@H](CC(C)C)C(=O)N[C@@H](CCCNC(=N)N)C(=O)N[C@@H](CCCCN)C(=O)N[C@@H](CCC(N)=O)C(=O)N[C@@H](CC(C)C)C(=O)N[C@@H](C)C(=O)N[C@@H](C)C(=O)N[C@H]1CNC[C@@H]1C(=O)N[C@@H](CCCCN)C(=O)N[C@@H](Cc1ccc(O)cc1)C(=O)N[C@H]1CCC[C@@H]1C(=O)N[C@@H](CC(N)=O)C(=O)N[C@@H](CC(=O)O)C(=O)N[C@@H](CC(C)C)C(=O)NC(CCCCN)CC(=O)N[C@@H](CCCCN)C(=O)NCC(=O)NCCC(=O)N[C@H](C(=O)O)[C@@H](C)O)[C@@H](C)O)[C@@H](C)O)C(C)C` (stereo partly drawn) (Ac-H[Aib]DA[β3hV]FTE[β3hN]YTKLRKQLAA[X2]KY[X1]NDL[ξβ3hK]KG[βAla]T-OH)?
EC50 [1]: 3.47 nM; EC50 [2]: > 1000 nM

Which results are given for `CC(=O)N[C@@H](Cc1cnc[nH]1)C(=O)N[C@H]1CCC[C@@H]1C(=O)N[C@@H](CC(=O)O)C(=O)N[C@@H](C)C(=O)N[C@H](C(=O)N[C@@H](Cc1ccccc1)C(=O)N[C@H](C(=O)N[C@@H](CCC(=O)O)C(=O)N[C@@H](CC(N)=O)C(=O)N[C@@H](Cc1ccc(O)cc1)C(=O)N[C@H](C(=O)N[C@@H](CCCCN)C(=O)N[C@@H](CC(C)C)C(=O)N[C@@H](CCCNC(=N)N)C(=O)N[C@@H](CCCCN)C(=O)N[C@@H](CCC(N)=O)C(=O)N[C@@H](CC(C)C)C(=O)N[C@@H](C)C(=O)N[C@@H](C)C(=O)N[C@H]1CNC[C@@H]1C(=O)N[C@@H](CCCCN)C(=O)N[C@@H](Cc1ccc(O)cc1)C(=O)N[C@H]1CCC[C@@H]1C(=O)N[C@@H](CC(N)=O)C(=O)N[C@@H](CC(=O)O)C(=O)N[C@@H](CC(C)C)C(=O)NC(CCCCN)CC(=O)N[C@@H](CCCCN)C(=O)NCC(=O)NCCC(=O)N[C@H](C(=O)O)[C@@H](C)O)[C@@H](C)O)[C@@H](C)O)C(C)C` (stereo partly drawn) (Ac-H[X1]DAVFTENYTKLRKQLAA[X2]KY[X1]NDL[ξβ3hK]KG[βAla]T-OH)?
EC50 [1]: 0.593 nM; EC50 [2]: > 1000 nM

How did the EC50 [1] turn out when `CC(=O)N[C@@H](Cc1cnc[nH]1)C(=O)N[C@H]1CCC[C@@H]1C(=O)N[C@@H](CC(=O)O)C(=O)N[C@@H](C)C(=O)N[C@H]1CCC[C@@H]1C(=O)N[C@@H](Cc1ccccc1)C(=O)N[C@H](C(=O)N[C@@H](CCC(=O)O)C(=O)N[C@H]1CCC[C@@H]1C(=O)N[C@@H](Cc1ccc(O)cc1)C(=O)N[C@H](C(=O)N[C@@H](CCCCN)C(=O)N[C@@H](CC(C)C)C(=O)N[C@@H](CCCNC(=N)N)C(=O)N[C@@H](CCCCN)C(=O)N[C@@H](CCC(N)=O)C(=O)N[C@@H](CC(C)C)C(=O)N[C@@H](C)C(=O)N[C@@H](C)C(=O)N[C@H]1CNC[C@@H]1C(=O)N[C@@H](CCCCN)C(=O)N[C@@H](Cc1ccc(O)cc1)C(=O)N[C@H]1CCC[C@@H]1C(=O)N[C@@H](CC(N)=O)C(=O)N[C@@H](CC(=O)O)C(=O)N[C@@H](CC(C)C)C(=O)NC(CCCCN)CC(=O)N[C@@H](CCCCN)C(=O)NCC(=O)NCCC(=O)N[C@H](C(=O)O)[C@@H](C)O)[C@@H](C)O)[C@@H](C)O` (stereo partly drawn) (Ac-H[X1]DA[X1]FTE[X1]YTKLRKQLAA[X2]KY[X1]NDL[ξβ3hK]KG[βAla]T-OH) was run?
Its EC50 is 5.58 nM.

And the EC50 [2]?
The EC50 was over 1000 nM.

`CC(=O)N[C@@H](Cc1cnc[nH]1)C(=O)N[C@H]1CCC[C@@H]1C(=O)N[C@@H](CC(=O)O)C(=O)N[C@@H](C)C(=O)N[C@H]1CCC[C@@H]1C(=O)N[C@@H](Cc1ccccc1)C(=O)N[C@H](C(=O)N[C@@H](CCC(=O)O)C(=O)N[C@H]1CCC[C@@H]1C(=O)NC(CC(=O)N[C@H](C(=O)N[C@@H](CCCCN)C(=O)N[C@@H](CC(C)C)C(=O)N[C@@H](CCCNC(=N)N)C(=O)N[C@@H](CCCCN)C(=O)N[C@@H](CCC(N)=O)C(=O)NC(CC(=O)N[C@@H](C)C(=O)N[C@@H](C)C(=O)N[C@H]1CNC[C@@H]1C(=O)N[C@@H](CCCCN)C(=O)N[C@@H](Cc1ccc(O)cc1)C(=O)N[C@H]1CCC[C@@H]1C(=O)N[C@@H](CC(N)=O)C(=O)N[C@@H](CC(=O)O)C(=O)N[C@@H](CC(C)C)C(=O)NC(CCCCN)CC(=O)N[C@@H](CCCCN)C(=O)NCC(=O)NCCC(=O)N[C@H](C(=O)O)[C@@H](C)O)CC(C)C)[C@@H](C)O)Cc1ccc(O)cc1)[C@@H](C)O` (stereo partly drawn) (Ac-H[X1]DA[X1]FTE[X1][ξβ3hY]TKLRKQ[ξβ3hL]AA[X2]KY[X1]NDL[ξβ3hK]KG[βAla]T-OH) was tested. Which EC50 [1] did it give?
The EC50 was 1.17 nM.

And the EC50 [2]?
The EC50 was 785 nM.

What does the source list for `CC(=O)N[C@@H](Cc1cnc[nH]1)C(=O)N[C@H]1CCC[C@@H]1C(=O)N[C@@H](CC(=O)O)C(=O)N[C@@H](C)C(=O)N[C@H]1CCC[C@@H]1C(=O)N[C@@H](Cc1ccccc1)C(=O)N[C@H](C(=O)N[C@@H](CCC(=O)O)C(=O)N[C@H]1CCC[C@@H]1C(=O)NC(CC(=O)N[C@H](C(=O)N[C@@H](CCCCN)C(=O)N[C@@H](CC(C)C)C(=O)N[C@@H](CCCNC(=N)N)C(=O)N[C@@H](CCCCN)C(=O)NCCC(=O)N[C@@H](CC(C)C)C(=O)N[C@@H](C)C(=O)N[C@@H](C)C(=O)N[C@H]1CNC[C@@H]1C(=O)N[C@@H](CCCCN)C(=O)N[C@@H](Cc1ccc(O)cc1)C(=O)N[C@H]1CCC[C@@H]1C(=O)N[C@@H](CC(N)=O)C(=O)N[C@@H](CC(=O)O)C(=O)N[C@@H](CC(C)C)C(=O)NC(CCCCN)CC(=O)N[C@@H](CCCCN)C(=O)NCC(=O)NCCC(=O)N[C@H](C(=O)O)[C@@H](C)O)[C@@H](C)O)Cc1ccc(O)cc1)[C@@H](C)O` (stereo partly drawn) (Ac-H[X1]DA[X1]FTE[X1][ξβ3hY]TKLRK[βAla]LAA[X2]KY[X1]NDL[ξβ3hK]KG[βAla]T-OH)?
EC50 [1]: 1.02 nM; EC50 [2]: > 1000 nM
